Values quoted from earlier work in publication PMC9199201, “Biomimetic and temporal-controlled nanocarriers with ileum transporter targeting for achieving oral administration of chemotherapeutic drugs” (Journal of Nanobiotechnology, 2022).

Set-up: method as in PMID 23220325

CC(=O)O[C@H]1C(=O)[C@@]2(C)[C@H]([C@H](OC(=O)c3ccccc3)[C@]3(O)C[C@H](OC(=O)[C@H](O)[C@@H](NC(=O)c4ccccc4)c4ccccc4)C(C)=C1C3(C)C)[C@]1(OC(C)=O)CO[C@@H]1C[C@@H]2O [PTX, paclitaxel]
Oral bioavailability: less than 1%
